3 molecules from patent US9062324B2, “Herbicide tolerant soybean plants and methods for identifying same” (M.S. TECHNOLOGIES LLC, priority 2009, dated 2015) can be followed below.

The structures appear in SMILES notation.

The test system of data set [1] is soybean plants comprising EE-GM3 and EE-GM2. Put plainly: field trial of lines combining EE-GM3 and EE-GM2 sprayed with glyphosate and glufosinate. It counts as in vivo, Glycine max. The settings on record: approximately 40 lines homozygous for tolerance to both herbicides. The text has this: A soybean plant containing a combination of elite events EE-GM3 and EE-GM2 has been obtained by conventional crossing between a parent soybean plant comprising EE-GM3 and a parent soybean plant comprising EE-GM2. Progeny plants comprising both events are identified using PCR Identification Protocols for EE-GM2 and EE-GM3 as described herein. Specifically, crosses were made with plants containing EE-GM3 and plants containing EE-GM2. The resulting F1 plants were crossed to 4 conventional lines. The F1s from these crosses were grown in the field and sprayed with glyphosate and glufosinate. F2 seed harvested from F1 plants resistant to both herbicides was then planted. The F2 plants were sprayed with both glyphosate and glufosinate. Nine hundred plants tolerant to both herbicides were harvested and planted in a field trial. Expected Mendelian segregation data for the events was obtained in this trial. Approximately 40 lines homozygous for tolerance to both herbicides were selected for agronomic uniformity for further studies.

Data set [2] concerns soybean plants comprising EE-GM3. Kind of data set: field trials of EE-GM3 in different commercial genetic backgrounds, herbicide challenge. Format: in vivo, Glycine max. The settings on record: glyphosate and/or isoxaflutole, different treatments, different locations and genetic backgrounds. The text has this: The selected event EE-GM3 was introduced in different commercial genetic backgrounds, and results of field trials on different locations were compared. Plants were challenged with glyphosate herbicide and/or isoxaflutole herbicide using different treatments. […] Hundreds of different soybean cultivars containing event EE-GM3 were used in an inheritance study, and herbicides were applied. Selected lines from this trial were later increased in the field and also treated with herbicide. From that trial, 50 selected lines were increased, and these were also herbicide treated.

As for `CP(=O)(O)CCC(N)C(=O)O` (stereo not shown) [glufosinate], the “tolerance of selected homozygous lines to herbicide” value in data set [1] is given as “good tolerance”.
For the molecule `CS(=O)(=O)c1cc(C(F)(F)F)ccc1C(=O)c1cnoc1C1CC1` [IFT, (5-cyclopropyl-4-isoxazolyl)[2-(methylsulfonyl)-4-(trifluoromethyl)phenyl]methanone], in data set [2], the “herbicide tolerance of plants” value is given as “good herbicide tolerance”.
On to `O=C(O)CNCP(=O)(O)O` [glyphosate], for which, in data set [1], the “tolerance of selected homozygous lines to herbicide” value is on record as “good tolerance”. In data set [2], the “herbicide tolerance of plants” value is “good herbicide tolerance”.
